Usually GI50 stands for the concentration at which growth is held to half of that of the control. A word on the TGI: it is the concentration giving total growth inhibition. A higher TGI goes with lower sensitivity of the cells.

Experimental findings from PubChem BioAssay (NCI) are described below.

What all share (experiment): DTP human tumour cell line panel, 48 h
Test [1] deals with ACHN renal.
The test system of test [2] is HOP-92 NSCLC.
In test [3] the test system is SK-MEL-5 melanoma.
Test [4] has as its system HCT-116 colon.
Test [5] deals with HL-60(TB) leukemia.
Test [6] has as its system HOP-62 NSCLC.
In test [7] the test system is HT29 colon.
Test [8] has as its system IGROV1 ovarian.
Test [9] relates to KM12 colon.
Test [10] has as its system NCI-H226 lung.
In test [11] the test system is SNB-75 CNS.
Test [12] deals with TK-10 renal.
The test system of test [13] is UACC-62 melanoma.
The test system of test [14] is MDA-MB-231 breast.

Several values for one entry are separate records, joined by “and”; a condition that tells them apart may be missing. Equal values may be shown once.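 96-well plates; 48 h exposure; 5 concentrations. Endpoints by linear interpolation between flanking doses. Not reached: highest tested concentration assigned. GI50: concentration for 50% inhibition of growth. TGI is the concentration that stops growth completely.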

As to `OCCN1CCN(c2nc(Nc3ccc(-c4nc5ccccc5[nH]4)cc3)c3cn[nH]c3n2)CC1`, the GI50 in test [1] was 1.75 µM; in [2], 1.41 µM; in test [3], 1.75 µM. In addition, the figures for the TGI in [1], in test [2] and in [3] were 3.16 µM, 2.91 µM and 3.15 µM, respectively.
Take `COC(=O)C(C(=O)C(=O)Nc1ccc([N+](=O)[O-])cc1)c1nc2cc(C)c(C)cc2[nH]c1=O` (centres undefined): the TGI in [1], in [4], in test [5], in [6], in test [2] and in test [7] was > 100 µM throughout. The TGI in test [8], in test [9], in [10], in [3], in test [11] and in test [12] was > 100 µM each time. Besides, in [13], the TGI was > 100 µM.
Regarding `Nc1ccn(CC(CO)CC(c2ccccc2)P(=O)(O)O)c(=O)n1` (centres undefined), the concentration for total growth inhibition (TGI) in [1], in test [4], in test [5], in [6], in test [2] and in test [7] was > 100 µM in each case. The concentration for total growth inhibition (TGI) was > 100 µM in [8]; > 100 µM in [9]; > 100 µM in [10]; > 100 µM in test [3]; 28.4 µM and > 100 µM in test [11]; > 100 µM in test [12]. The TGI in [13] was > 100 µM.
Turning to `CCOc1ccc(N=Nc2c(-c3ccccc3)nn(C(=O)CC(=O)Nc3cccc(C)c3)c2-c2ccccc2)cc1`, the concentration for total growth inhibition (TGI) in test [1], in test [4], in test [5], in test [6], in [2] and in test [7] was > 100 µM in each case. For the same molecule, the TGI in [8], in test [9], in test [10], in [3], in test [11] and in [12] was > 100 µM in each case. Besides, in test [13], the TGI is > 100 µM.
As for `CCCCC1=CC1(C#N)[N+](=O)[O-]` (centres undefined), the concentration for total growth inhibition (TGI) in test [1], in test [4], in test [6], in [2], in [7] and in test [8] was > 100 µM each time. Besides, the TGI in [9], in test [14], in test [10], in test [3], in [11] and in [12] was > 100 µM throughout. Moreover, the TGI in test [13] is > 100 µM.
Consider `CN(C)C(=O)C(F)(F)C(c1ccc(C(F)(F)F)cc1)C1C(=O)N(C)C(=O)N(C)C1=O` (centres undefined), for which the total growth inhibition concentration (TGI) in test [1], in test [4], in [6], in [2], in [9] and in test [14] was > 100 µM throughout. In addition, the concentration for total growth inhibition (TGI) in test [10], in [3], in test [11], in test [12] and in test [13] was > 100 µM each time.
As to `CSC1CC2C(CC1(C)SC)C2(C)C` (centres undefined), the TGI in [1] is > 100 µM; in test [5], 58 µM; in test [6], > 100 µM; in [2] it was 53.9 µM; in [7], > 100 µM; in [8], > 100 µM. In addition, the TGI is > 100 µM in test [9]; 73.1 µM in [10]; 78.9 µM in test [3]; 83.9 µM in test [11]; > 100 µM in [12]; > 100 µM in [13].
As to `COc1cc2c(cc1OC)C1(c3ccccc3)ON=C(c3ccccc3)N1CS2` (centres undefined), the TGI in [1], in test [4], in test [5], in [6], in test [2] and in test [7] was > 100 µM in each case. Moreover, the concentration for total growth inhibition (TGI) in test [8], in test [9], in test [10], in test [3], in [11] and in test [12] was > 100 µM in each case. The TGI in test [13] is > 100 µM.
Regarding `NC(N)=NCCCC(NCc1c2ccccc2[n+]([O-])c2ccccc12)C(=O)O` (centres undefined), the total growth inhibition concentration (TGI) in [1] was > 100 µM; in test [4], > 100 µM; in test [5] it was 58.7 µM; in test [6], > 100 µM; in test [7] it was > 100 µM; in [8] it was > 100 µM. The total growth inhibition concentration (TGI) was > 100 µM in [9]; > 100 µM in test [10]; > 100 µM in test [3]; 88.7 µM in test [11]; > 100 µM in test [12]; > 100 µM in [13].
For `N#CC1C(=O)NC2=C(CCOc3c2ccc2ccccc32)C1c1ccc(F)cc1` (centres undefined), the TGI in test [1] was 26.1 µM; in [4] it was 27 µM; in test [5], > 100 µM; in test [6], 33.6 µM; in test [2] it was 28.5 µM; in test [8] it was 37.9 µM. Further, the TGI in [9] was > 100 µM; in [3] it was 80.8 µM; in test [11], 54 µM; in test [12] it was 43.2 µM.
Turning to `CC(=O)NC(CCCOC(C)=O)C(=O)NC(CCCOC(C)=O)C(=O)NC(CCCOC(C)=O)C(=O)NC(Cc1ccc([N+](=O)[O-])cc1)C(=O)NCC(=O)OCc1ccccc1` (centres undefined), the TGI in [1], in test [4], in test [6], in test [2], in test [7] and in [8] was > 100 µM each time. Besides, the TGI in test [9], in [14], in test [10], in test [3], in test [11] and in test [12] was > 100 µM each time. The total growth inhibition concentration (TGI) in [13] is > 100 µM.
